Laboratory results reported in patent US20100196355A1, “Immunophilin Ligands and Methods for Modulating Immunophilin and Calcium Channel Activity” (Wyeth, priority 2007, published 2010).
“Also recorded” adds a separate entry of the source.

Legend:
FKBP52 = target: T1, FKBP52 (Mus musculus, UniProt P30416); assay: Affinity precipitation from F-11 cell lysate, FT-ICR-MS and Western analysis; format: binding, rat and mouse hybrid
T1 construct: endogenous in cells; host or cells: F-11 cells (rat DRG x mouse neuroblastoma hybrid), lysate
Protocol: (§1) Briefly, the amino group of amino-phenyl-butyric acid (1200 mg) was protected with an allyloxycarbonyl group by treating with diallyldicarbonate ([…]) in dioxane:water (3:1; 50 ml) for 3 h at room temperature.
(§2) The reaction was quenched with methanol and the ester product was purified by HPLC with a purity of 99% and characterized by MS and NMR. After removing the allyloxycarbonyl group of the ester product (40 mg) by treatment with Pd(PPh3)4 (2 mg) and dimedone (7 mg) in THF (1.2 ml), the amino group of the product was linked to Affigel-10 matrix (4 ml) in the presence of 2% pyridine in THF.
(§3) F11 cells were grown in culture medium, DMEM supplemented with 10% FBS and 1% pen/Strep, in 75 cm^2 vented flasks in 37° C. incubator with 5% CO2. Cells were harvested at 80% confluence and washed with PBS buffer. Lysis buffer (6 ml; 50 mM Tris, pH 7.4, 250 mM NaCl, 5 mM EDTA, 50 mM NaF, 1 mM Na3VO4, 1% Nonidet P40 (NP40), 0.1% mercaptoethanol and 2% protease inhibitor cocktails) was added to 10^9 cells. Cells were broken by forcing them through a 26-gauge needle, and S-100 supernatant was collected after 15 min centrifugation at 4° C. […] After washes with lysis buffer (2 ml) and then PBS (2 ml), the beads were analyzed on 4-20% SDS-PAGE gel. […] The protein bands (FIG. 3) were cut out and digested with trypsin (0.3 ng) in digestion buffer (30 μl; 0.2% NH4HCO3) at 30° C. overnight. The resulting peptides were purified on C18-resin and submitted for FT-ICR-MS analysis. The FT-ICR-MS data was manually edited and used to search protein databases. The results are shown in FIG. 4 and have the following scores. FK506-binding protein (FKBP52) (P30416, score: 94, expect: 9.6e-05); MS Data of the 59 kDa band: 2753.35; 1710.94; 2215.13; 2363.15; 1298.71; 1215.59; 1000.51; 1000.46; 1790.93; 1381.70; 2746.36; 1316.71; and 1171.60. Voltage dependent L-type calcium channel β1 subunit (Q8R3Z5-03-00-00, score: 133, expect: 1e-09); MS Data of the 52 kDa band: 651.38; 663.39; 779.54; 853.55; 1014.50; 1347.75; 1217.78; 1346.67; 1297.75; 1231.77; 877.52; 853.47; 919.48; 1014.56; 1041.63; 1217.74; 1231.74; 1296.84; 869.58 (major).
(§4) In another experiment, F11 cells were grown in culture medium, DMEM supplemented with 10% FBS and 1% Pen/Strep, in 75 cm^2 vented flasks in a 37° C. incubator with 5% CO2. Cells were harvested at 80% confluence and washed with PBS buffer. To 3×10^8 cells, lysis buffer (2 ml; 50 mM Tris, pH 7.4, 250 mM NaCl, 5 mM EDTA, 50 mM NaF, 1 mM Na3VO4, 1% Nonidet P40, 0.1% mercaptoethanol and 2% protease inhibitor cocktails) was added, and its S-100 supernatant was collected after 15 min centrifugation at 4° C. […] After wash with lysis buffer (2 ml) and then PBS buffer (2 ml), beads were analyzed by SDS-PAGE. […]

[1] = target: T2, β1 subunit (CACNB1) of the voltage gated L-type calcium channel (Mus musculus, UniProt Q8R3Z5); assay: as above; format: binding, rat and mouse hybrid
T2 construct: endogenous in cells; host or cells: F-11 cells (rat DRG x mouse neuroblastoma hybrid), lysate
Protocol: as §1, §2, §3, §4

His6-tagged FKBP52 = target: T3, His6-tagged FKBP52 (Homo sapiens, UniProt Q02790); assay: [3H]-FK506 binding on Ni-chelated FLASH plate
T3 construct: made in house
T3 sequence (Q02790 1-459): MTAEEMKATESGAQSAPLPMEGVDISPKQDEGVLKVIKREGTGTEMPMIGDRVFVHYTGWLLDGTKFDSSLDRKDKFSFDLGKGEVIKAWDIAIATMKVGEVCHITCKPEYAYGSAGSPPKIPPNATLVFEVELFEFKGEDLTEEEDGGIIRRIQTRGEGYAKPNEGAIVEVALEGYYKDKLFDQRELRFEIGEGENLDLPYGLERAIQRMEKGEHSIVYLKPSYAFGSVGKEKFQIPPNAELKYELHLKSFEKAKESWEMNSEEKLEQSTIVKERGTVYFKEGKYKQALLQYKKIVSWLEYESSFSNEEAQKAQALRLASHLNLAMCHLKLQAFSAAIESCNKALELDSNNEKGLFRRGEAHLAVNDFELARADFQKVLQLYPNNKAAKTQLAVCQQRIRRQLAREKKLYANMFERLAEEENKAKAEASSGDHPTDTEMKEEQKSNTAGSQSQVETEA
Protocol: Reactions were carried out in triplicate at 25° C. for 30 min. Kd were calculated using methods described by Carreras (Anal. Biochem. 298, 57-61 (2001)).

[2] = test system: Ca2+ channels in cultured rat hippocampal neurons; assay: Whole-cell patch clamp recording of Ca2+ currents in hippocampal neurons; format: cell-based; conditions: 10 μM internal
Protocol: The whole-cell configuration of the patch-clamp technique was used to record calcium currents from the cells at room temperature using an EPC-9 amplifier (HEKA, Instrutech Corp.) with the acquisition and analysis program Pulse-PulseFit from HEKA (Lambrecht, Germany). Electrodes were fabricated using a P-87 puller (Sutter Instrument). […] The standard bath recording solution is Ca^2+ and Mg^2+ free HBSS (pH 7.4) containing 10 mM HEPES, 10 mM dextrose, and 4 mM BaCl2. Currents were filtered at 3 kHz, and the inward Ca^2+ currents were recorded from cells held at −90 mV with 10 mV depolarizing steps from −80 mV to 60 mV for 50 ms.

T1 sequence (P30416 whole entry): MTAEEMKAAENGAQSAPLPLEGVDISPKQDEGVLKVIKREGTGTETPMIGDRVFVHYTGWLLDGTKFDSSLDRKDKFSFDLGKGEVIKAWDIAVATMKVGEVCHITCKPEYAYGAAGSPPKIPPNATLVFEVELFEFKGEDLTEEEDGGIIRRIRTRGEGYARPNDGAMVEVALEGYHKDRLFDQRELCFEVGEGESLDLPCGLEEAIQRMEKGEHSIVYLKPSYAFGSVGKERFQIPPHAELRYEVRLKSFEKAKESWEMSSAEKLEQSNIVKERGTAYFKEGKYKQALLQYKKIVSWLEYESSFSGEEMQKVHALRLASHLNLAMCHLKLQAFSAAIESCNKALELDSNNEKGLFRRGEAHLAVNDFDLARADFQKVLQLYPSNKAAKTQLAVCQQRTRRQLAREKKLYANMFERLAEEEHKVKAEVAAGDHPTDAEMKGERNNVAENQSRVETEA
T2 sequence (Q8R3Z5 1-479 isoform Q8R3Z5-3): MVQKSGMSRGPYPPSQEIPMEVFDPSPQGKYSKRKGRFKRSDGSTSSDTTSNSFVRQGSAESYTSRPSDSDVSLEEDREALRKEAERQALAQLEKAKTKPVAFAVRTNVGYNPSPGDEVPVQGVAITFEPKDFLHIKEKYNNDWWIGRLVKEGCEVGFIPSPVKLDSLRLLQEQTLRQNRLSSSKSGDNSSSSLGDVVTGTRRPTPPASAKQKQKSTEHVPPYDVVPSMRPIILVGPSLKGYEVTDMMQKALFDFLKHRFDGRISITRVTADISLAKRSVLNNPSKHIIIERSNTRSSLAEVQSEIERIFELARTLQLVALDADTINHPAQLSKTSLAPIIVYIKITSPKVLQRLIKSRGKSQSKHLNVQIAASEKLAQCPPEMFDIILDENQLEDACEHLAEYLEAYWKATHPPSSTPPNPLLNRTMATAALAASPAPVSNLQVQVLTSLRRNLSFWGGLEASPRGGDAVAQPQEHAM

Compound	FKBP52 in affinity bead fraction (FKBP52)	L-type calcium channel β1 subunit (CACNB1) in affinity bead fraction [1]	Kd (His6-tagged FKBP52)	inhibition of Ca2+ current ([2]; N-type Ca2+ channels blocked, after 10 min)	inhibition of the remaining Ca2+ current ([2]; both N- and L-type Ca2+ channels blocked)
CO[C@H]1C[C@@H]2CC[C@@H](C)[C@@](O)(O2)C(=O)C(=O)N2CCCCC2C(=O)O[C@H]([C@H](C)C[C@@H]2CC[C@@H](O)[C@H](OC)C2)CC(=O)[C@H](C)/C=C(\C)[C@@H](O)[C@@H](OC)C(=O)[C@H](C)C[C@H](C)C2C=C[C@H](/C=C/1C)ON2c1ccccc1 (some centres unmarked) [Rapamycin analogue I, 9,27-dihydroxy-3-{2-[4-hydroxy-3-methoxycyclohexyl]-1-methylethyl}-10,21-dimethoxy-6,8,12,14,20,26-hexamethyl-37-phenyl-4,9,10,12,13,14,15,18,21,22,23,24,25,26,27,32,33,34,34a-nonadecahydro-3H-23,27-epoxy-18,15-(epoxyimino)pyrido[2,1-c][1,4]oxazacyclohentriacontine-1,5,11,28,29(6H, 31H)-pentone]	major targets; also recorded: detected	major targets; also recorded: detected	0.55 ± 0.05 nM	–	–
CO[C@H]1C[C@@H]2CC[C@@H](C)[C@@](O)(O2)C(=O)C(=O)N2CCCCC2C(=O)O[C@H]([C@H](C)C[C@@H]2CC[C@@H](O)[C@H](OC)C2)CC(=O)[C@H](C)/C=C(\C)[C@@H](O)[C@@H](OC)C(=O)[C@H](C)C[C@H](C)C2CC[C@H](/C=C/1C)ON2c1ccccc1 (some centres unmarked) [Rapamycin analogue II, 9,27-dihydroxy-3-{2-[4-hydroxy-3-methoxycyclohexyl]-1-methylethyl}-10,21-dimethoxy-6,8,12,14,20,26-hexamethyl-37-phenyl-4,9,10,12,13,14,15,16,17,18,21,22,23,24,25,26,27,32,33,34,34a-henicosahydro-3H-23,27-epoxy-18,15-(epoxyimino)pyrido[2,1-c][1,4]oxazacyclohentriacontine-1,5,11,28,29(6H, 31H)-pentone]	major targets	major targets	0.48 ± 0.04 nM	74.5+/−8.8	21.3+/−4.4%
